According to patent publication US8058290B2, “7-substituted aza-indazoles, compositions containing same, production method and use thereof” (Aventis Pharma S.A., priority 2005, dated 2011):
Where a name gives a salt, the structure may show the parent alone.

What was measured:
Format in all cases: biochemical
human Tie2 = target: T1, human Tie2 (Homo sapiens, UniProt Q02763); test: Tie2 PLC phosphorylation assay (GST-Tie2, FlashPlate); conditions: GST-Tie2 intracellular domain, 2 μM cold ATP, 1 hour at 37° C.; read-out: IC 50 Tie2
T1 construct: corresponding to the intracellular domain amino acids 776-1124 was generated by PCR; made in house; host or cells: baculovirus expression (pFastBacGT)
Description: The human Tie2 coding sequence corresponding to the intracellular domain amino acids 776-1124 was generated by PCR using the cDNA isolated from human placenta as model. This sequence was introduced into a baculovirus expression vector pFastBacGT in the form of a GST fusion protein.
The inhibitory effect of the molecules is determined in an assay of PLC phosphorylation by Tie2 in the presence of GST-Tie2 purified to approximately 80% of homogeneity. The substrate is composed of the SH2-SH3 fragments of PLC expressed in the form of a GST fusion protein.
The kinase activity of Tie2 is measured in a 20 mM MOPS buffer, pH 7.2, containing 10 mM MgCl2, 10 mM MnCl2, 1 mM DTT and 10 mM of glycerophosphate. In a FlashPlate 96-well plate kept on ice, a reaction mixture composed of 70 μl of kinase buffer containing 100 ng of GST-Tie2 enzyme is deposited per well. 10 μl of the test molecule diluted, in DMSO, to a concentration of at most 10% are subsequently added. For a given concentration, each measurement is carried out in quadruplicate. The reaction is initiated by adding 20 μl of solution containing 2 μg of GST-PLC, 2 μM of cold ATP and 1 μCi of ^33P[ATP]. After incubation for 1 hour at 37° C., the reaction is stopped by adding 1 volume (100 μl) of EDTA at 200 mM. After removal of the incubation buffer, the wells are washed three times with 300 μl of PBS. The radioactivity is measured on a Wallac MicroBeta1450.
The inhibition of the Tie2 activity is calculated and expressed as percentage inhibition relative to the control activity determined in the absence of compound.

human KDR enzyme = target: T2, human KDR enzyme (Homo sapiens, UniProt P35968); test: KDR substrate phosphorylation assay (scintillation, 96-well plate); conditions: cytoplasmic domain of human KDR as GST fusion, 2 μM cold ATP, 1 hour at 37° C.
T2 construct: The cytoplasmic domain of the human KDR enzyme was cloned in the form of a GST fusion; GST; made in house; host or cells: SF21 insect cells (baculovirus, pFastBac)
Description: 2. KDR The inhibitory effect of the compounds is determined in an assay of substrate phosphorylation by the KDR enzyme in vitro using a scintillation technique (96-well plate, NEN). The cytoplasmic domain of the human KDR enzyme was cloned in the form of a GST fusion into the baculovirus expression vector pFastBac. The protein was expressed in SF21 cells and purified to approximately 60% homogeneity. The kinase activity of KDR is measured in 20 mM MOPS, 10 mM MgCl2, 10 mM MnCl2, 1 mM DTT, 2.5 mM EGTA and 10 mM b-glycerophosphate, pH=7.2, in the presence of 10 mM MgCl2, 100 μM Na3VO4 and 1 mM NaF. 10 μl of the compound are added to 70 μl of kinase buffer containing 100 ng of KDR enzyme at 4° C. The reaction is initiated by adding 20 μl of solution containing 2 μg of substrate (SH2-SH3 fragment of PLCγ expressed in the form of a GST fusion protein), 2 μCi γ^33P[ATP] and 2 μM cold ATP. After incubation for 1 hour at 37° C., the reaction is stopped by adding 1 volume (100 μl) of 200 mM EDTA. The incubation buffer is removed, and the wells are washed three times with 300 μl of PBS. The radioactivity is measured in each well using a Top Count NXT radioactivity counter (Packard). The background noise is determined by measuring the radioactivity in four different wells containing radioactive ATP and the substrate alone. A total activity control is measured in four different wells containing all the reactants (γ^33P-[ATP], KDR and PLCγ substrate) but in the absence of compound. The inhibition of the KDR activity with the compound of the invention is expressed as percentage inhibition of the control activity determined in the absence of compound. The compound SU5614 (Calbiochem) (1 μM) is included in each plate as an inhibition control.

human FAK = target: T3, human FAK (Homo sapiens, UniProt Q05397); test: FAK autophosphorylation time resolved fluorescence assay (HTRF); conditions: 15 μM ATP, 1 hour at 37° C.
T3 construct: The complete cDNA of human FAK, the N-terminal end of which had been labelled with histidine; made in house; host or cells: baculovirus expression (pFastBac HTc)
Description: Determination of the Activity of the Compounds—Experimental Protocols 1. FAK
The inhibitory activity of the compounds on FAK is determined by measuring the inhibition of autophosphorylation of the enzyme using a time resolved fluorescence assay (HTRF).
The complete cDNA of human FAK, the N-terminal end of which had been labelled with histidine, was cloned into a baculovirus expression vector pFastBac HTc. The protein was expressed and purified to approximately 70% homogeneity.
The kinase activity is determined by incubating the enzyme (6.6 μg/ml) with various concentrations of test compound in a 50 mM Hepes buffer, pH=7.2, containing 10 mM MgCl2, 100 μM Na3VO4, and 15 μM of ATP for 1 hour at 37° C. […] The XL-665-specific long-lasting signal is measured in a Packard Discovery plate counter. All the assays were carried out in duplicate and the mean of the two assays is calculated. The inhibition of the FAK autophosphorylation activity with compounds of the invention is expressed as percentage inhibition relative to a control, the activity of which is measured in the absence of test compound. […]

T2 sequence (P35968 786-1356 limits assumed): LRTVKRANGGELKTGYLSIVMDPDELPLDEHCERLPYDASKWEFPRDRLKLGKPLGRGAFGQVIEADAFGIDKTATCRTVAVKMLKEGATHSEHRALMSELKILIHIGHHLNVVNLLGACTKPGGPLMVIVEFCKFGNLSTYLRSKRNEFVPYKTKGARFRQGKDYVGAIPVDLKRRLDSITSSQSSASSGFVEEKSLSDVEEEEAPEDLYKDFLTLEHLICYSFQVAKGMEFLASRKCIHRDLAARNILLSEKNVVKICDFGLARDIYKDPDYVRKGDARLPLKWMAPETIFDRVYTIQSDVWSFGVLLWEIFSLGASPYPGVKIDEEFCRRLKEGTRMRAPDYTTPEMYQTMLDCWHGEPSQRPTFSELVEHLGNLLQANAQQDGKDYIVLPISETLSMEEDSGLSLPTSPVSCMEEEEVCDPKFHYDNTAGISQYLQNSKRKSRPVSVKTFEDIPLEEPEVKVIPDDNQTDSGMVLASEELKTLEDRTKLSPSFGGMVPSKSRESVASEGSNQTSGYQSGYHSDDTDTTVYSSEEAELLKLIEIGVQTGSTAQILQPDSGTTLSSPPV
T1 sequence (Q02763 776-1124): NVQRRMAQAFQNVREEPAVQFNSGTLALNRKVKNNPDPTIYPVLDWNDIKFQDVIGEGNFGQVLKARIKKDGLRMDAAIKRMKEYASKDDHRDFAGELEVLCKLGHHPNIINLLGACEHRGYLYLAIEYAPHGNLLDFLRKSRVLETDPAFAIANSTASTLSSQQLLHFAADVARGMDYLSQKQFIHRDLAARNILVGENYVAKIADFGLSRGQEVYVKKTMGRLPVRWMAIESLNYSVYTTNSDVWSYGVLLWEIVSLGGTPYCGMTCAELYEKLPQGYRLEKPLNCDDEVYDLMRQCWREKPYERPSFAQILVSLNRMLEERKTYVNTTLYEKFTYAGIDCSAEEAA
T3 sequence (Q05397 whole entry): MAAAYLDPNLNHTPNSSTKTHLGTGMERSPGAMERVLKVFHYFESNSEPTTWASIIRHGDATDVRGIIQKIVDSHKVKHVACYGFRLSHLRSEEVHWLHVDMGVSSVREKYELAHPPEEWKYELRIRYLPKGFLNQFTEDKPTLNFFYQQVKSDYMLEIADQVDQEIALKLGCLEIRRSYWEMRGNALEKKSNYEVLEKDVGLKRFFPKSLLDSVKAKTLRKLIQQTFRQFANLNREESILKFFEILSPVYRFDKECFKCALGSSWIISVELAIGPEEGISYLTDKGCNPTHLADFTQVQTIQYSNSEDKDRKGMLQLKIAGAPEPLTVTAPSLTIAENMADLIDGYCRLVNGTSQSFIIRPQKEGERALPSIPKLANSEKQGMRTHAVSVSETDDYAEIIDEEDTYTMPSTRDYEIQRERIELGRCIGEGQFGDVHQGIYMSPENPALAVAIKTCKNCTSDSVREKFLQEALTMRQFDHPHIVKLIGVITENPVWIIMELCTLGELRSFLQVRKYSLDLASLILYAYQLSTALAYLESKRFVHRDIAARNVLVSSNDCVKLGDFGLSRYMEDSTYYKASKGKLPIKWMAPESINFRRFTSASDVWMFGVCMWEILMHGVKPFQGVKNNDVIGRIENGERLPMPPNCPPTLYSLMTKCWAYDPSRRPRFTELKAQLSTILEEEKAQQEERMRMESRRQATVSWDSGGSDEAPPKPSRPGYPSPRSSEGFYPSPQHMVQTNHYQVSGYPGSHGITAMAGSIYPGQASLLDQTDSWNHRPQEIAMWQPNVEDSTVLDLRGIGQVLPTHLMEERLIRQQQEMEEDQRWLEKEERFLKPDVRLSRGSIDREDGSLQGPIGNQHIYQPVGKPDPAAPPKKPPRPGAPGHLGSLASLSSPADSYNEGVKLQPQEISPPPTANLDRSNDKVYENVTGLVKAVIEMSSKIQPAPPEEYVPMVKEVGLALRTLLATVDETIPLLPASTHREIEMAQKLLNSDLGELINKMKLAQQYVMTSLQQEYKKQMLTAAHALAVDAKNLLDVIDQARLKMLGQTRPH

| SMILES | IC50 (human Tie2) [nM] | IC50 (human KDR enzyme) [nM] | IC50 (human FAK) [nM] |
| --- | --- | --- | --- |
| Nc1n[nH]c2nc(-c3ccc(NC(=O)Nc4cc(C(F)(F)F)ccc4F)cc3)ccc12 [Example 1, 1-[4-(3-Amino-1H-pyrazolo[3,4-b]pyridin-6-yl)phenyl]-3-(2-fluoro-5-trifluoromethylphenyl)urea] | 192 | 119 | – |
| Nc1n[nH]c2nc(-c3ccc(NS(=O)(=O)c4cccc(Cl)c4Cl)cc3)ccc12 [Example 3, N-[4-(3-Amino-1H-pyrazolo[3,4-b]pyridin-6-yl)phenyl]-2,3-dichlorobenzenesulphonamide] | 75 | – | – |
| CNC(=O)c1cc(-c2ccc(NS(=O)(=O)c3cccc(Cl)c3Cl)cc2)nc2[nH]ncc12 [Example 5] | 13 | – | – |
| O=C(Nc1ccccc1)Nc1ncc(-c2cc(C(=O)NCCN3CCOCC3)c3cn[nH]c3n2)s1 [Example 9] | 443 | 6820 | – |
| CN(C)CCNC(=O)c1cc(-c2cnc(NC(=O)Nc3cc(C(F)(F)F)ccc3F)s2)nc2[nH]ncc12 [Example 12] | 30 | 2360 | – |
| CNC(=O)c1cc(-c2ccc(NC(=O)Nc3cc(C(F)(F)F)ccc3F)nc2)nc2[nH]ncc12 [Example 20] | 777 | – | – |
| O=C(Nc1ccc(-c2cc(C(=O)NCCN3CCOCC3)c3cn[nH]c3n2)cn1)Nc1cc(C(F)(F)F)ccc1F [Example 21] | 6030 | – | – |
| O=C(Nc1ncc(-c2cc(C(=O)NCc3ccncc3)c3cn[nH]c3n2)s1)Nc1cc(C(F)(F)F)ccc1F [Example 28] | 105 | 4660 | – |
| O=C(Nc1ncc(-c2cc(C(=O)NCCCN3CCCC3CO)c3cn[nH]c3n2)s1)Nc1cc(C(F)(F)F)ccc1F (stereo not shown) [Example 31] | 9 | 647 | – |
| CNC(=O)c1cc(-c2cccc(NC(=O)Nc3cc(C(F)(F)F)ccc3F)c2)nc2[nH]ncc12 [Example 33] | 2700 | – | – |
| O=C(Nc1cccc(-c2cc(C(=O)NCCN3CCOCC3)c3cn[nH]c3n2)c1)Nc1cc(C(F)(F)F)ccc1F [Example 34] | 4140 | – | – |
| O=C(Nc1ccc(C(F)(F)F)cc1)Nc1ncc(-c2cc(C(=O)NCCN3CCOCC3)c3cn[nH]c3n2)s1 [Example 55] | 88 | 3540 | – |

The next compounds have a lower IC50 (human Tie2) than those just listed; values first:

| IC50 (human Tie2) [nM] | IC50 (human KDR enzyme) [nM] | IC50 (human FAK) [nM] | SMILES |
| --- | --- | --- | --- |
| 8 | 581 | 927 | CNC(=O)c1cc(-c2cnc(NC(=O)Nc3cc(C(F)(F)F)ccc3F)s2)nc2[nH]ncc12 [Example 11] |
| 7 | 6 | – | O=C(Nc1ccc(-c2ccc3c(NC(=O)c4ccsc4)n[nH]c3n2)cc1)Nc1cc(C(F)(F)F)ccc1F [Example 2, Thiophene-3-carboxylic acid (6-{4-[3-(2-fluoro-5-trifluoromethylphenyl)ureido]phenyl}-1H-pyrazolo[3,4-b]pyridin-3-yl)amide] |
| 7 | 293 | – | O=C(Nc1ncc(-c2cc(C(=O)NCCc3cnc[nH]3)c3cn[nH]c3n2)s1)Nc1cc(C(F)(F)F)ccc1F [Example 14] |
| 7 | 200 | – | O=C(Nc1ncc(-c2cc(C(=O)N3CCNCC3)c3cn[nH]c3n2)s1)Nc1cc(C(F)(F)F)ccc1F [Example 16] |
| 6 | 527 | – | O=C(Nc1ncc(-c2cc(C(=O)NCCN3CCNCC3)c3cn[nH]c3n2)s1)Nc1cc(C(F)(F)F)ccc1F [Example 23] |
| 4 | 373 | – | CN(C)CC(C)(C)CNC(=O)c1cc(-c2cnc(NC(=O)Nc3cc(C(F)(F)F)ccc3F)s2)nc2[nH]ncc12 [Example 13] |
| 4 | 511 | – | O=C(Nc1ncc(-c2cc(C(=O)NCCCN3CCOCC3)c3cn[nH]c3n2)s1)Nc1cc(C(F)(F)F)ccc1F [Example 22] |
| 3 | 387 | – | O=C(Nc1ncc(-c2cc(C(=O)NCCO)c3cn[nH]c3n2)s1)Nc1cc(C(F)(F)F)ccc1F [Example 26] |
| 3 | 160 | – | O=C(Nc1ncc(-c2cc(C(=O)NCc3ccccn3)c3cn[nH]c3n2)s1)Nc1cc(C(F)(F)F)ccc1F [Example 29] |
| 2 | 70 | – | O=C(Nc1ncc(-c2cc(C(=O)N3CCOCC3)c3cn[nH]c3n2)s1)Nc1cc(C(F)(F)F)ccc1F [Example 15] |
| 2 | 133 | – | O=C(Nc1ncc(-c2cc(C(=O)NCCC3CCNCC3)c3cn[nH]c3n2)s1)Nc1cc(C(F)(F)F)ccc1F [Example 24] |
| 1 | 83 | 343 | O=C(Nc1ncc(-c2cc(C(=O)NCCN3CCOCC3)c3cn[nH]c3n2)s1)Nc1cc(C(F)(F)F)ccc1F [Example 4, 6-{2-[3-(2-Fluoro-5-trifluoromethylphenyl)ureido]thiazol-5-yl}-1H-pyrazolo[3,4-b]pyridine-4-carboxylic acid (2-morpholin-4-ylethyl)amide trifluoroacetate] |
| 1 | 46 | – | CN1CCN(C(=O)c2cc(-c3cnc(NC(=O)Nc4cc(C(F)(F)F)ccc4F)s3)nc3[nH]ncc23)CC1 [Example 17] |
